Where “and” joins values, the source holds several entries; their conditions need not be identical. Equal entries are not always repeated. Where two headings read alike, the source gives them in different places. Bridge positions count the residues as written; N and C are the ends. Square brackets hold non-standard residues; d marks the D form. Peptide text beside a SMILES is read from it. * marks the point of attachment. hArg = N=C(N)NCCCC[C@H](N)C(=O)O; Pentanoyl = CCCCC(=O)*
Experiments:
[1] = target: T1, PCSK9Δhelix (Homo sapiens, UniProt Q8NBP7); experiment: PCSK9Δhelix/Ab20 TR-FRET binding assay
T1 construct: Human PCSK9 construct M1-Q692 with an engineered TEV site (residue deletion Y166, R167); made in house; host or cells: CHO
T1 sequence (Q8NBP7 with tags, fused parts or gaps limits assumed): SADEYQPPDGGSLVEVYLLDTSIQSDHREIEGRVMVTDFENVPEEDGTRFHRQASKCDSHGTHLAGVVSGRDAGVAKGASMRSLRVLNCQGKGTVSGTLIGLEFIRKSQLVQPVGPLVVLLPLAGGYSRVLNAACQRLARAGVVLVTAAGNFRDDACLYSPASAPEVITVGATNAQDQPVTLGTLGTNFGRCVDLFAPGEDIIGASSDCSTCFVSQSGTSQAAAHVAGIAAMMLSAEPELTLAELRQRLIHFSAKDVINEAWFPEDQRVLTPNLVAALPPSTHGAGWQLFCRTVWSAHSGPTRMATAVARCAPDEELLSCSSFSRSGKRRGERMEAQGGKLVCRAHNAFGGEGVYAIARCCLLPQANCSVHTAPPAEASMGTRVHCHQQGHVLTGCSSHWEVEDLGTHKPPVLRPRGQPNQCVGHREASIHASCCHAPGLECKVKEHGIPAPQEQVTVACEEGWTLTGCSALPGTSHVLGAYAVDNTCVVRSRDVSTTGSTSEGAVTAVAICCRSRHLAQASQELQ
T1 sequence (Q8NBP7 31-152 partner limits assumed): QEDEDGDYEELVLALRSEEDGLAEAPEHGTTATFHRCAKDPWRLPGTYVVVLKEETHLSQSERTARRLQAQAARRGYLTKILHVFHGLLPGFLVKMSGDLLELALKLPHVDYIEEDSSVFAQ

[2] = target: PCSK9 (Homo sapiens, UniProt Q8NBP7); experiment: PCSK9/EGF(A) TR-FRET binding assay
Chain of PCSK9 (Q8NBP7 153-692): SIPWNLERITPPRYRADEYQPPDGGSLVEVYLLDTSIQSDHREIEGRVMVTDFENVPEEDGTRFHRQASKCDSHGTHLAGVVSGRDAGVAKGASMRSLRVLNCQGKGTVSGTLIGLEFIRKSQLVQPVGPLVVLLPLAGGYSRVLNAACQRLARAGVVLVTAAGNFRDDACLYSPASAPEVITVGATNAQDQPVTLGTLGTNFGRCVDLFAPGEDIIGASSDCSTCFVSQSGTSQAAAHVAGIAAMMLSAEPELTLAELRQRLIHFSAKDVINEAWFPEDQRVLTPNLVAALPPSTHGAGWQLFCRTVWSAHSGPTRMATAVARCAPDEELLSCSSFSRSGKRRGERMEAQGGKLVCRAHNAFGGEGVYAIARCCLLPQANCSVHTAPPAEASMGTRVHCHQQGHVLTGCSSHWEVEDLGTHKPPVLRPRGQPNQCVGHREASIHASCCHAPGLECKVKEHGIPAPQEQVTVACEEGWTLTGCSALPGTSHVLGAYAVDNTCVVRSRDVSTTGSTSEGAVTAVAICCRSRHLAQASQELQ
Chain of PCSK9 (Q8NBP7 31-152 partner limits assumed): as the sequence (Q8NBP7 31-152 partner limits assumed) above

[3] = test system: His-EGF(A)-Fc; experiment: His-EGF(A)-Fc TR-FRET counterscreen
Method: The former was based on a TF-FRET assay to measure the association of the EGF(A) domain of the LDLR to PCSK9 (“PCSK9/EGF(A) binding assay”) whilst the latter was based on a TR-FRET assay to measure binding of Ab20 to PCSK9Δhelix (“PCSK9Δhelix/Ab20 binding assay”).
The ability of compounds to inhibit binding to PCSK9 was evaluated with a panel of time-resolved fluorescence resonance energy transfer (TR-FRET) binding assays. […] The PCSK9Δhelix/Ab20 binding assay evaluated the ability of compounds to compete with Ab20 for binding to the N-terminal groove region in a His-tagged, PCSK9Δhelix construct. […] Signal generation in the PCSK9 binding assays was dependent upon the binding interaction to bring into close proximity the His-tag on the PCSK9 and the Fc-tag on the ligand. Anti-His-APC was bound to the His-tag, and anti-Fc-europium was bound to the Fc-tag. When these two antibodies were in close proximity and were irradiated with light at 340 nm, the europium was excited and emitted energy at 615 nm. This energy was taken up by the APC and was emitted as light at 665 nm. Compounds that competed with the ligand reduced the energy transfer and thus the emission at 665 nm. In the His-EGFA-Fc molecule in the counterscreen, the two tags were always in close proximity, thus any reduction in emission at 665 nm was due to interference with the detection system.
Compounds were solubilized and dilutions were prepared in DMSO. […] The plate was centrifuged to mix the well contents and allowed to incubate for 30 min. […] The TR-FRET signal was read on a ViewLux reader (PerkinElmer) with excitation at 340 nm and emission at 615 and 665 nm with a 50-μs time delay between excitation and measurement of emission. The TR-FRET ratio was calculated as the fluorescence emission at 665 nm divided by the fluorescence emission at 615 nm. The normalized TR-FRET ratios were plotted as a function of the compound concentrations, and the IC50 values were determined using a 4-parameter logistic regression.
In black 1536-well assay plates (MaKO, Aurora® Microplates, Whitefish, Mont.), 40 nL of peptide in DMSO were preincubated with 2 μL His-tagged PCSK9 plus anti-His-allophycocyanin in assay buffer (50 mM Tris-HCl, pH 7.5, 150 mM NaCl, 2 mM CaCl2, 0.01% Tween®-20, 0.1% bovine gamma globulins, and protease inhibitor cocktail) for 30 min. Then 2 μL of Fc-tagged ligand and anti-Fc-europium in assay buffer were added and allowed to incubate for 2 h.

[4] = TR-FRET, Example 7, read-out: PCSK9Δhelix/Ab20 IC50
[5] = TR-FRET, Example 7, read-out: PCSK9/EGF(A) IC50
[6] = TR-FRET, Table 8D, disulfide-cyclized extension peptides, read-out: PCSK9/EGF(A) IC50
[7] = TR-FRET counterscreen, Table 8D, * = some inhibition at highest concentrations, not sufficient to fit an IC50
[8] = TR-FRET, Table 8E, additional compounds, read-out: PCSK9/EGF(A) IC50
[9] = TR-FRET counterscreen, Table 8E, additional compounds

Compound | IC50 [1, 4] [µM] | IC50 ([3]; counterscreen, Example 7) [µM] | IC50 [2, 8] [µM] | IC50 [3, 9] [µM] | further results
CC(=O)N[C@H](C(=O)N[C@H](C(=O)N[C@@H](Cc1ccccc1)C(=O)N[C@H](C(=O)N[C@@H](CO)C(=O)N[C@@H](Cc1c[nH]c2ccccc12)C(=O)N[C@@H](CCC(=O)O)C(=O)N[C@@H](CCC(=O)O)C(=O)N[C@@H](Cc1ccc(O)cc1)C(=O)N[C@@H](CC(C)C)C(=O)N[C@@H](CC(=O)O)C(=O)N[C@@H](Cc1c[nH]c2ccccc12)C(=O)N[C@H](C(=O)NCCCCCCCC(=O)N[C@@H](CCCCN)C(=O)N[C@@H](CC(C)C)C(=O)N[C@@H](Cc1c[nH]c2ccccc12)C(=O)N[C@@H](CC(N)=O)C(=O)N[C@@H](CC(C)C)C(=O)NCC(=O)N[C@@H](CCCNC(=N)N)C(=O)N[C@H](C(N)=O)C(C)C)C(C)C)[C@@H](C)O)C(C)C)[C@@H](C)O [Compound 10] | 0.63 | > 50 | – | – | IC50 [2, 5]: 0.63 µM
CC[C@H](C)[C@@H]1NC(=O)[C@H](CCCNC(=N)N)NC(=O)CNC(=O)[C@H](CC(C)C)NC(=O)[C@H](CC(N)=O)NC(=O)[C@H](Cc2c[nH]c3ccccc23)NC(=O)[C@@H](NC(=O)CNC(=O)[C@H](CO)NC(=O)CNC(=O)[C@@H](NC(=O)[C@H](Cc2c[nH]c3ccccc23)NC(=O)[C@H](CC(=O)O)NC(=O)[C@H](CC(C)C)NC(=O)[C@H](Cc2ccc(O)cc2)NC(=O)[C@H](CCC(=O)O)NC(=O)[C@H](CCC(=O)O)NC(=O)[C@H](Cc2c[nH]c3ccccc23)NC(=O)[C@H](CO)NC(=O)[C@@H](NC(=O)[C@H](Cc2ccccc2)NC(=O)[C@@H](NC(=O)[C@@H](NC(C)=O)[C@@H](C)O)C(C)C)[C@@H](C)O)C(C)C)CSSC[C@@H](C(N)=O)NC(=O)CNC(=O)[C@H](CCC(N)=O)NC(=O)[C@H](CO)NC(=O)CNC1=O [Compound 11] (Ac-TVFTSWEEYLDWVGSGCWNLGRIGSQGC-NH2; disulfide 17-28) | – | > 50 | – | – | IC50 [2, 5]: 0.34 µM
CC[C@H](C)[C@@H]1NC(=O)[C@H](CCCNC(=N)N)NC(=O)[C@H](CCCCN)NC(=O)[C@H](CC(C)C)NC(=O)[C@H](CC(N)=O)NC(=O)[C@H](Cc2c[nH]c3ccccc23)NC(=O)[C@@H](NC(=O)CNC(=O)[C@H](CO)NC(=O)CNC(=O)CNC(=O)[C@@H](NC(=O)[C@H](Cc2c[nH]c3ccccc23)NC(=O)[C@H](CC(=O)O)NC(=O)[C@H](CC(C)C)NC(=O)[C@H](Cc2ccc(O)cc2)NC(=O)[C@H](CCC(=O)O)NC(=O)[C@H](CCC(=O)O)NC(=O)[C@H](Cc2c[nH]c3ccccc23)NC(=O)[C@H](CO)NC(=O)[C@@H](NC(=O)[C@H](Cc2ccccc2)NC(=O)[C@@H](NC(=O)[C@@H](NC(C)=O)[C@@H](C)O)C(C)C)[C@@H](C)O)C(C)C)CSSC[C@@H](C(N)=O)NC(=O)CNC(=O)[C@H](CCC(N)=O)NC(=O)[C@H](CO)NC(=O)CNC1=O [Compound 13] (Ac-TVFTSWEEYLDWVGGSGCWNLKRIGSQGC-NH2; disulfide 18-29) | 0.001 | > 50 | – | – | inhibition in the PCSK9Δhelix/Ab20 binding assay [1]: potent inhibitors; inhibition in the PCSK9/EGF(A) binding assay [2]: potent inhibitors; IC50 [2, 5]: 0.01 µM
CC[C@H](C)[C@@H]1NC(=O)[C@H](CCCNC(=N)N)NC(=O)[C@H](CCCCN)NC(=O)[C@H](CC(C)C)NC(=O)[C@H](CC(N)=O)NC(=O)[C@H](Cc2c[nH]c3ccccc23)NC(=O)[C@@H](NC(=O)CNC(=O)CNC(=O)[C@H](CO)NC(=O)CNC(=O)[C@@H](NC(=O)[C@H](Cc2c[nH]c3ccccc23)NC(=O)[C@H](CC(=O)O)NC(=O)[C@H](CC(C)C)NC(=O)[C@H](Cc2ccc(O)cc2)NC(=O)[C@H](CCC(=O)O)NC(=O)[C@H](CCC(=O)O)NC(=O)[C@H](Cc2c[nH]c3ccccc23)NC(=O)[C@H](CO)NC(=O)[C@@H](NC(=O)[C@H](Cc2ccccc2)NC(=O)[C@@H](NC(=O)[C@@H](NC(C)=O)[C@@H](C)O)C(C)C)[C@@H](C)O)C(C)C)CSSC[C@@H](C(N)=O)NC(=O)CNC(=O)[C@H](CCC(N)=O)NC(=O)[C@H](CO)NC(=O)CNC1=O [Compound 14] (Ac-TVFTSWEEYLDWVGSGGCWNLKRIGSQGC-NH2; disulfide 18-29) | 0.001 | > 50 | – | – | inhibition in the PCSK9Δhelix/Ab20 binding assay [1]: potent inhibitors; inhibition in the PCSK9/EGF(A) binding assay [2]: potent inhibitors; IC50 [2, 5]: 0.009 µM
CC[C@H](C)[C@@H]1NC(=O)[C@H](CCCNC(=N)N)NC(=O)[C@H](CCCCN)NC(=O)[C@H](CC(C)C)NC(=O)[C@H](CC(N)=O)NC(=O)[C@H](Cc2c[nH]c3ccccc23)NC(=O)[C@@H](NC(=O)CCCCCCCNC(=O)[C@@H](NC(=O)[C@H](Cc2c[nH]c3ccccc23)NC(=O)[C@H](CC(=O)O)NC(=O)[C@H](CC(C)C)NC(=O)[C@H](Cc2ccc(O)cc2)NC(=O)[C@H](CCC(=O)O)NC(=O)[C@H](CCC(=O)O)NC(=O)[C@H](Cc2c[nH]c3ccccc23)NC(=O)[C@H](CO)NC(=O)[C@@H](NC(=O)[C@H](Cc2ccccc2)NC(=O)[C@@H](NC(=O)[C@@H](NC(C)=O)[C@@H](C)O)C(C)C)[C@@H](C)O)C(C)C)CSSC[C@@H](C(N)=O)NC(=O)CNC(=O)[C@H](CCC(N)=O)NC(=O)[C@H](CO)NC(=O)CNC1=O [Compound 15] | 0.002 | > 50 | – | – | inhibition in the PCSK9Δhelix/Ab20 binding assay [1]: maintained potency; inhibition in the PCSK9/EGF(A) binding assay [2]: maintained potency
CC[C@H](C)[C@@H]1NC(=O)[C@H](CCCNC(=N)N)NC(=O)[C@H](CCCCN)NC(=O)[C@H](CC(C)C)NC(=O)[C@H](CC(N)=O)NC(=O)[C@H](Cc2c[nH]c3ccccc23)NC(=O)[C@@H](NC(C)=O)CSSC[C@@H](C(N)=O)NC(=O)CNC(=O)[C@H](CCC(N)=O)NC(=O)[C@H](CO)NC(=O)CNC1=O [Compound 21] (Ac-CWNLKRIGSQGC-NH2; disulfide 1-12) | – | – | – | – | IC50 ([1]; TR-FRET, Table 8D, disulfide-cyclized extension peptides, read-out: PCSK9Δhelix/Ab20 IC50): > 50 µM; IC50 [2, 6]: > 50 µM; IC50 [3, 7]: > 50 µM
CC[C@H](C)[C@@H]1NC(=O)[C@H](CCCNC(=N)N)NC(=O)[C@H](CCCCN)NC(=O)[C@H](CC(C)C)NC(=O)[C@H](CC(N)=O)NC(=O)[C@H](Cc2c[nH]c3ccccc23)NC(=O)[C@@H](NC(=O)CNC(=O)[C@H](CO)NC(=O)CNC(C)=O)CSSC[C@@H](C(N)=O)NC(=O)CNC(=O)[C@H](CCC(N)=O)NC(=O)[C@H](CO)NC(=O)CNC1=O [Compound 22] (Ac-GSGCWNLKRIGSQGC-NH2; disulfide 4-15 (inferred)) | – | – | – | – | IC50 ([1]; PCSK9Δhelix/Ab20 IC50, TR-FRET, Table 8D, disulfide-cyclized extension peptides): 14 µM and > 50 µM; IC50 ([2]; PCSK9/EGF(A) IC50, TR-FRET, Table 8D, disulfide-cyclized extension peptides): > 50 µM; IC50 [3, 7]: > 50 µM
CC[C@H](C)[C@@H]1NC(=O)[C@H](CCCNC(=N)N)NC(=O)[C@H](CCCCN)NC(=O)[C@H](CC(C)C)NC(=O)[C@H](CC(N)=O)NC(=O)[C@H](Cc2c[nH]c3ccccc23)NC(=O)[C@@H](NC(=O)CCCCCCNC(=O)[C@@H](NC(=O)[C@H](Cc2c[nH]c3ccccc23)NC(=O)[C@H](CC(=O)O)NC(=O)[C@H](CC(C)C)NC(=O)[C@H](Cc2ccc(O)cc2)NC(=O)[C@H](CCC(=O)O)NC(=O)[C@H](CCC(=O)O)NC(=O)[C@H](Cc2c[nH]c3ccccc23)NC(=O)[C@H](CO)NC(=O)[C@@H](NC(=O)[C@H](Cc2ccccc2)NC(=O)[C@@H](NC(=O)[C@@H](NC(C)=O)[C@@H](C)O)C(C)C)[C@@H](C)O)C(C)C)CSSC[C@@H](C(N)=O)NC(=O)CNC(=O)[C@H](CCC(N)=O)NC(=O)[C@H](CO)NC(=O)CNC1=O [Compound 24] | 0.001 | > 50 | – | – | inhibition in the PCSK9Δhelix/Ab20 binding assay [1]: maintained potency; inhibition in the PCSK9/EGF(A) binding assay [2]: maintained potency
CC[C@H](C)[C@@H]1NC(=O)[C@H](CCCNC(=N)N)NC(=O)[C@H](CCC(N)=O)NC(=O)[C@H](CC(C)C)NC(=O)[C@H](CC(N)=O)NC(=O)[C@H](Cc2c[nH]c3ccccc23)NC(=O)[C@@H]2CCCN2C(=O)[C@H](CC(C)C)NC(=O)[C@H](CCCNC(=N)N)NC(=O)[C@@H](NC(C)=O)CSSC[C@@H](C(N)=O)NC(=O)CNC(=O)[C@H](CC(C)C)NC(=O)CNC1=O [Compound 80] (Ac-CRLPWNLQRIGLGC-NH2; disulfide 1-14) | – | – | – | – | IC50 [2, 6]: > 50 µM; IC50 [3, 7]: > 50 µM
CC[C@H](C)[C@@H]1NC(=O)[C@H](CCCNC(=N)N)NC(=O)[C@H](CCC(N)=O)NC(=O)[C@H](CC(C)C)NC(=O)[C@H](CC(N)=O)NC(=O)[C@H](Cc2c[nH]c3ccccc23)NC(=O)[C@@H]2CCCN2C(=O)[C@H](CC(C)C)NC(=O)[C@H](CCCNC(=N)N)NC(=O)[C@H](NC(C)=O)CSSC[C@@H](C(N)=O)NC(=O)[C@@H]2CCCN2C(=O)[C@H](CC(C)C)NC(=O)CNC1=O [Compound 110] (Ac-[dC]RLPWNLQRIGLPC-NH2; disulfide 1-14) | – | – | – | – | IC50 [2, 6]: > 50 µM; IC50 [3, 7]: > 50 µM
CCCCC(=O)N[C@@H](Cc1c[nH]c2ccccc12)C(=O)N[C@@H](CC(N)=O)C(=O)N[C@@H](CC(C)C)C(=O)N[C@H](C(=O)N[C@@H](CCCNC(=N)N)C(=O)N[C@H](C(=O)NCC(=O)N[C@@H](CC(C)C)C(=O)N[C@@H](CCC(=O)O)C(=O)N[C@@H](CCCNC(=N)N)C(N)=O)[C@@H](C)CC)C(C)C [Compound 177] (Pentanoyl-WNLVRIGLER-NH2) | – | – | ≥ 50 | ≥ 50 | –
CC[C@H](C)[C@H](NC(=O)[C@H](CCCCNC(=N)N)NC(=O)[C@H](CCCCN)NC(=O)[C@H](CC(C)C)NC(=O)[C@H](CC(N)=O)NC(=O)[C@H](Cc1c[nH]c2ccccc12)NC(=O)CNC(=O)[C@@H]1CCCN1C(=O)[C@H](Cc1ccccc1)NC(=O)[C@H](CO)NC(=O)[C@H](CCC(=O)O)NC(=O)[C@H](CCSC)NC(C)=O)C(=O)NCC(=O)N[C@@H](CC(C)C)C(=O)N[C@@H](CC(C)C)C(=O)N[C@@H](CCCNC(=N)N)C(N)=O [Compound 233] (Ac-MESFPGWNLK[hArg]IGLLR-NH2) | – | – | 3.1 | ≥ 50 | –
Ac-DSYPGWNLVRIGLLR-NH2 [Compound 155] | – | – | 11 | > 50 | –
Ac-ESYPGWNLVRIGLLR-NH2 [Compound 156] | – | – | 11 | > 50 | –
Ac-MDSFPGWNLVRIGLLR-NH2 [Compound 153] | – | – | 12 | > 50 | –
Ac-SFAFPGWNLVRIGLLR-NH2 [Compound 154] | – | – | 11 | > 50 | –

— patent US11034725B2, “Compositions and methods for treating cardiovascular disease” (Genentech, Inc., priority 2016, dated 2021)
